Data reported in publication PMC12531613, “Synthesis and Biological Evaluation of Novel 2‐(Piperidin‐4‐yl)‐1,2,3,4‐tetrahydroisoquinoline and 2‐(Piperidin‐4‐yl)decahydroisoquinoline Antimycotics” (Archiv Der Pharmazie, 2025).
Values after ≈ are worked out from the molar mass of the structure shown. Like-named read-outs stand apart in the source and are kept apart here.

Key:
R. arrhizus (oryzae) = experiment: MIC90 growth inhibition of molds (EUCAST), R. arrhizus (oryzae); type: cell-based; conditions: Rhizopus arrhizus
Experimental: (§1) Determination of MICs (minimal inhibitory concentration) against Candida species was carried out according to the European Committee of Antifungal Susceptibility Testing. Concentration of yeast cells was determined by photometer and adjusted to a turbidity of 0.5 according to McFarland standard. MIC90 was determined by microdilution plate reader (Sunrise Tecan) at 450 nm, after 24 h incubation at 37°C. MIC90 was defined as the minimal concentration of chemical causing 90% growth inhibition, respectively. Growth inhibition of molds was determined by eye and microscopically, following EUCAST guidelines. All substances were dissolved in DMSO and diluted in RPMI 1640 medium, containing 2% glucose. All assays were carried out twice.

R. microsporus = experiment: MIC90 growth inhibition of molds (EUCAST), R. microsporus; type: cell-based; conditions: Rhizopus microsporus
Experimental: as §1

[1] = MTT cytotoxicity assay against HL 60 cells; type: cell-based; conditions: human
Experimental: The cytotoxicity of the active compounds was checked in an MTT assay against human HL 60 cells. […] Although, this corresponds to the MIC range that would be needed in treatment, the values are within the range observed for commonly used antimycotics such as amorolfine and posaconazole. All active compounds were evaluated for their biopharmaceutical behavior and drug‐likeness using the online program SwissADME [26] and should show oral bioavailability according to the Lipinski rules of five.
HL‐60 cells (human leukemia cells, DSM No. ACC3) were obtained from DSMZ (German Collection of Microorganisms and Cell Cultures, Braunschweig, Germany) and cultivated in RPMI 1640 medium with 10% fetal bovine serum (FBS), both from PAA Laboratories, Cölbe, Germany) without the addition of antibiotics at 37°C in a humidified atmosphere containing 5% CO2. The assay was performed according to lit.

C. albicans = experiment: MIC90 microdilution (EUCAST), C. albicans; type: cell-based; conditions: Candida albicans, 24 h
Experimental: as §1

C. glabrata = experiment: MIC90 microdilution (EUCAST), C. glabrata; type: cell-based; conditions: Nakaseomyces glabratus, 24 h
Experimental: as §1

A. fumigatus (A65) = experiment: MIC90 growth inhibition of molds (EUCAST), A. fumigatus (A65); type: cell-based; conditions: Aspergillus fumigatus, RPMI 1640, 2% glucose, read by eye and microscopically
Experimental: Determination of MICs (minimal inhibitory concentration) against Candida species was carried out according to the European Committee of Antifungal Susceptibility Testing. Concentration of yeast cells was determined by photometer and adjusted to a turbidity of 0.5 according to McFarland standard. […] Growth inhibition of molds was determined by eye and microscopically, following EUCAST guidelines. […] All assays were carried out twice.

A. fumigatus (R7) = experiment: MIC90 growth inhibition of molds (EUCAST), A. fumigatus (R7); type: cell-based; conditions: Aspergillus fumigatus
Experimental: as §1

molds = experiment: Growth inhibition of molds; type: cell-based; conditions: against the molds
Experimental: as §1

A. fumigatus (R16) = experiment: MIC90 growth inhibition of molds (EUCAST), A. fumigatus (R16); type: cell-based; conditions: Aspergillus fumigatus
Experimental: as §1

C. krusei = experiment: MIC90 microdilution (EUCAST), C. krusei; type: cell-based; conditions: Pichia kudriavzevii, 24 h
Experimental: as §1

Yarrowia lipolytica = experiment: MIC100 microdilution assay against Yarrowia lipolytica; type: cell-based
Experimental: In previous research we found a good correlation between MIC values against Yarrowia lipolytica and pathogenic Candida species.
Determination of MICs against Yarrowia lipolytica (DSMZ, Braunschweig, Germany) was carried out according to lit. Yarrowia lipolytica was cultivated in AC‐agar (Sigma Aldrich). Concentration of yeast cells was determined by photometer and adjusted to a turbidity of 0.5 according to McFarland standard at 600 nm. All substances were dissolved in DMSO or methanol.
Determination of MICs (minimal inhibitory concentration) against Yarrowia lipolytica was carried out according to Lit.^[13] Concentration of yeast cells was determined by photometer and adjusted to a turbitity of 0.5 according to McFarland Standard.

Candida species = conditions: reported values; cited from earlier work
Candida isolates = experiment: MIC90 against Candida isolates; type: cell-based; conditions: span over the Candida isolates tested
Experimental: as §1

[2] = HL-60 cells (human leukemia cells), HL 60 cell line, MTT assay, read-out: IC50 cytotoxicity
[3] = 48 h, read-out: Biological Activity MIC Yarrowia lipolytica
[4] = read-out: MIC100 (molar value in brackets)

For `CC(C)=CCC/C(C)=C/CN1CCC(N2CCC3CCCCC3C2)CC1` (stereo not drawn) [6l, 2‐{1‐[(2E)‐3,7‐Dimethylocta‐2,6‐dien‐1‐yl]piperidin‐4‐yl}‐decahydroisoquinoline], the MIC90 (R. arrhizus (oryzae)) was 16 µg/mL (≈ 44.6 µM), the MIC90 (R. microsporus) was greater than 32 µg/mL and the IC50 [1, 2] was 26 µg/mL (≈ 72.5 µM). For the same molecule, the MIC90 (C. albicans) was 32 µg/mL (≈ 89.2 µM), the MIC90 (C. glabrata) was greater than 32 µg/mL and the MIC90 (A. fumigatus (A65)) was greater than 32 µg/mL. The MIC90 (A. fumigatus (R7)) was greater than 32 µg/mL, the “growth inhibition at concentrations (molds)” value (“growth inhibition” below) (molds) was 16 to 32 µg/mL and the MIC90 (A. fumigatus (R16)) was greater than 32 µg/mL. The MIC90 (C. krusei) was 4 µg/mL (≈ 11.2 µM), the MIC (Yarrowia lipolytica; [3]) was 12.5 µg/mL and the MIC (Yarrowia lipolytica; 48 h, read-out: MIC100) was 12.5 µg/mL. The MIC (Yarrowia lipolytica; [4]) was 34.9 µM.

In the case of `CC(Cc1ccc(C(C)(C)C)cc1)CN1CCCCC1` (stereo not drawn) [fenpropidin], the “MIC values against Candida species” value (Candida species) is listed as 0.25 to 1 µg/mL.

`CCCCCCCCCCCCN1CCC(N2CCc3cc(OC)c(OC)cc3C2)CC1` [6f, 2‐(1‐Dodecylpiperidin‐4‐yl)‐6,7‐dimethoxy‐1,2,3,4‐tetrahydroisoquinoline] showed an MIC90 (R. arrhizus (oryzae)) greater than 32 µg/mL, an MIC90 (R. microsporus) greater than 32 µg/mL and an IC50 [1, 2] of 6 µg/mL (≈ 13.5 µM). The MIC90 (Candida isolates) was 2 to 16 µg/mL (≈ 4.5 to 36 µM), the MIC90 (C. albicans) was 4 µg/mL (≈ 8.99 µM) and the MIC90 (A. fumigatus (A65)) was greater than 32 µg/mL. It also gave an MIC90 (A. fumigatus (R7)) greater than 32 µg/mL, an MIC90 (A. fumigatus (R16)) greater than 32 µg/mL and an MIC90 (C. krusei) of 2 µg/mL (≈ 4.5 µM). For the same molecule, the MIC (Yarrowia lipolytica; [3]) was 3.1 µg/mL, the MIC (Yarrowia lipolytica; 48 h, read-out: MIC100) was 3.1 µg/mL and the MIC (Yarrowia lipolytica; [4]) was 7 µM.

Molecule `CCCCCCCCCCCCN1CCC(N2CCC3CCCCC3C2)CC1` (racemic) [6i, (±)‐2‐(1‐Dodecylpiperidin‐4‐yl)‐decahydroisoquinoline] has an MIC90 (R. arrhizus (oryzae)) greater than 32 µg/mL, an MIC90 (R. microsporus) greater than 32 µg/mL and an IC50 [1, 2] of 23 µg/mL (≈ 58.9 µM). It also gave an MIC90 (Candida isolates) of 2 to 16 µg/mL (≈ 5.12 to 41 µM), an MIC90 (C. glabrata) of 16 µg/mL (≈ 41 µM) and an MIC90 (A. fumigatus (A65)) of 32 µg/mL (≈ 81.9 µM). The MIC90 (A. fumigatus (R7)) was 32 µg/mL (≈ 81.9 µM), the “growth inhibition” value (molds) was 16 to 32 µg/mL and the MIC90 (A. fumigatus (R16)) was 32 µg/mL (≈ 81.9 µM). For the same molecule, the MIC (Yarrowia lipolytica; [3]) was 1.6 µg/mL, the MIC (Yarrowia lipolytica; 48 h, read-out: MIC100) was 1.6 µg/mL and the MIC (Yarrowia lipolytica; [4]) was 4.1 µM.

For `CC(Cc1ccc(C(C)(C)C)cc1)CN1C[C@@H](C)O[C@@H](C)C1` (stereo partly drawn) [fenpropimorph], the “MIC values against Candida species” value (Candida species) is listed as 0.5 to 2 µg/mL.

`CC(C)=CCCC(C)CCN1CCC(N2CCC3CCCCC3C2)CC1` (racemic) [6k, (±)‐2‐[1‐(3,7‐Dimethyloct‐6‐en‐1‐yl)‐piperidin‐4‐yl]‐decahydroisoquinoline] showed an MIC90 (R. arrhizus (oryzae)) of 16 µg/mL (≈ 44.4 µM), an MIC90 (R. microsporus) greater than 32 µg/mL and an IC50 [1, 2] of 17 µg/mL (≈ 47.1 µM). For the same molecule, the MIC90 (C. albicans) was 16 µg/mL (≈ 44.4 µM), the MIC90 (C. glabrata) was greater than 32 µg/mL and the MIC90 (A. fumigatus (A65)) was greater than 32 µg/mL. For the same molecule, the MIC90 (A. fumigatus (R7)) was greater than 32 µg/mL, the “growth inhibition” value (molds) was 16 to 32 µg/mL and the MIC90 (A. fumigatus (R16)) was greater than 32 µg/mL. For the same molecule, the MIC90 (C. krusei) was 8 µg/mL (≈ 22.2 µM), the MIC (Yarrowia lipolytica; [3]) was 6.3 µg/mL and the MIC (Yarrowia lipolytica; 48 h, read-out: MIC100) was 6.3 µg/mL. The MIC (Yarrowia lipolytica; [4]) was 17.5 µM.

In the case of `CCCCN1CCC(N2CCC3CCCCC3C2)CC1` (racemic) [6g, (±)‐2‐(1‐Butylpiperidin‐4‐yl)‐decahydroisoquinoline], the MIC90 (R. arrhizus (oryzae); R. arrhizus (oryzae), RPMI 1640, 2% glucose, read by eye and microscopically, read-out: MIC90) was greater than 32 µg/mL, the MIC90 (R. microsporus; R. microsporus, RPMI 1640, 2% glucose, read by eye and microscopically, read-out: MIC90) was greater than 32 µg/mL and the IC50 [1] was greater than 100 µg/mL. For the same molecule, the MIC90 (C. albicans; C. albicans, RPMI 1640, 2% glucose, 37°C, duplicate, read-out: MIC90) was greater than 32 µg/mL, the MIC90 (C. glabrata; C. glabrata, RPMI 1640, 2% glucose, 37°C, duplicate, read-out: MIC90) was greater than 32 µg/mL and the MIC90 (A. fumigatus (A65)) was greater than 32 µg/mL. It also gave an MIC90 (A. fumigatus (R7); A. fumigatus (R7), RPMI 1640, 2% glucose, read by eye and microscopically, read-out: MIC90) greater than 32 µg/mL, an MIC90 (A. fumigatus (R16); A. fumigatus (R16), RPMI 1640, 2% glucose, read by eye and microscopically, read-out: MIC90) greater than 32 µg/mL and an MIC90 (C. krusei; C. krusei, RPMI 1640, 2% glucose, 37°C, duplicate, read-out: MIC90) greater than 32 µg/mL. For the same molecule, the MIC (Yarrowia lipolytica; microdilution, 48 h, 25°C, 600 nm, read-out: MIC100) was greater than 100 µg/mL and the MIC (Yarrowia lipolytica; supplement table, MIC100, 48 h, 25°C, 600 nm, read-out: Biological Activity MIC Yarrowia lipolytica) was greater than 100 µg/mL.
